Test results from patent publication US7163947B2, “1-Amino 1H-imidazoquinolines” (3M Innovative Properties Company, priority 2003, dated 2007).

melting point [°C] | SMILES
157.1 to 158.7 | CCCCc1nc2c(N)nc3ccccc3c2n1NC(C)C [Example 1, 2-Butyl-N^1-isopropyl-1H-imidazo[4,5-c]quinoline-1,4-diamine]
159.3 to 160.5 | CCCCc1nc2c(N)nc3ccccc3c2n1NCc1ccccc1 [Example 2, N^1-Benzyl-2-butyl-1H-imidazo[4,5-c]quinoline-1,4-diamine]
227 to 229 | Cc1nc2c(N)nc3ccccc3c2n1NC(C)C [Example 3, N^1-Isopropyl-2-methyl-1H-imidazo[4,5-c]quinoline-1,4-diamine]
152 to 155 | CCOCc1nc2c(N)nc3ccccc3c2n1NCc1ccccc1 [Example 4, N^1-Benzyl-2-ethoxymethyl-1H-imidazo[4,5-c]quinoline-1,4-diamine]
162 to 164 | CCOCc1nc2c(N)nc3ccccc3c2n1NC(C)C [Example 5, 2-Ethoxymethyl-N^1-isopropyl-1H-imidazo[4,5-c]quinoline-1,4-diamine]
143 to 145 | CCOCc1nc2c(N)nc3ccccc3c2n1NC1CCCCC1 [Example 6, N^1-Cyclohexyl-2-(ethoxymethyl)-1H-imidazo[4,5-c]quinoline-1,4-diamine]
213 to 215 | CCOCc1nc2c(N)nc3ccccc3c2n1N(C)C [Example 7, N^1,N^1-Dimethyl-2-ethoxymethyl-1H-imidazo[4,5-c]quinoline-1,4-diamine]
125 to 128 | CCOCc1nc2c(N)nc3ccccc3c2n1NC(CC)CC [Example 9, 2-Ethoxymethyl-N^1-(1-ethylpropyl)-1H-imidazo[4,5-c]quinoline-1,4-diamine]
137 to 140 | CCOCc1nc2c(N)nc3ccccc3c2n1NCC(C)C [Example 10, 2-Ethoxymethyl-N^1-isobutyl-1H-imidazo[4,5-c]quinoline-1,4-diamine]
144 to 146 | CCOCc1nc2c(N)nc3c(c2n1NC(C)C)CCCC3 [Example 11, 2-Ethoxymethyl-N^1-isopropyl-6,7,8,9-tetrahydro-1H-imidazo[4,5-c]quinoline-1,4-diamine]
129 to 132 | CCOCc1nc2c(N)nc3ccccc3c2n1NCCC(C)C [Example 12, 2-Ethoxymethyl-N^1-(3-methylbutyl)-1H-imidazo[4,5-c]quinoline-1,4-diamine]
223 to 224 | CCOCc1nc2c(N)nc3ccccc3c2n1N1CCOCC1 [Example 13, 2-Ethoxymethyl-1-(morpholin-4-yl)-1H-imidazo[4,5-c]quinolin-4-amine]
148 to 150 | CCOCc1nc2c(N)nc3ccccc3c2n1NCCCNS(C)(=O)=O [Example 14, N-{3-[(4-Amino-2-ethoxymethyl-1H-imidazo[4,5-c]quinolin-1-yl)amino]propyl}methanesulfonamide]
177 to 179 | CCOCc1nc2c(N)nc3ccccc3c2n1NCCCNC(=O)Nc1ccccc1 [Example 15, 1-{3-[(4-Amino-2-ethoxymethyl-1H-imidazo[4,5-c]quinolin-1-yl)amino]propyl}-3-phenylurea]
181 to 184 | CCCc1nc2c(N)nc3ccccc3c2n1NC(C)C [Example 16, N^1-Isopropyl-2-propyl-1H-imidazo[4,5-c]quinoline-1,4-diamine]
162 to 164 | CCCc1nc2c(N)nc3c(c2n1NC(C)C)CCCC3 [Example 17, N^1-Isopropyl-2-propyl-6,7,8,9-tetrahydro-1H-imidazo[4,5-c]quinoline-1,4-diamine]
218 to 219 | CCCc1nc2c(N)nc3cc(-c4cccnc4)ccc3c2n1NC(C)C [Example 19, N^1-Isopropyl-2-propyl-7-(pyridin-3-yl)-1H-imidazo[4,5-c]quinoline-1,4-diamine]
194 to 196 | CCOCc1nc2c(N)nc3cc(OCc4ccccc4)ccc3c2n1NC(C)C [Example 20, 7-Benzyloxy-2-ethoxymethyl-N^1-isopropyl-1H-imidazo[4,5-c]quinoline-1,4-diamine]
158 to 160 | CCOCc1nc2c(N)nc3ccccc3c2n1NCCCNC(=O)N1CCOCC1 [Example 23, [3-(4-Amino-2-ethoxymethyl-1H-imidazo[4,5-c]quinolin-1-ylamino)propyl]morpholine-4-carboxamide]

melting point [°C] | SMILES
75 to 77 | CCOCc1nc2c(N)nc3ccccc3c2n1NCCCNC(=O)C1CCCC1 [Example 24, N-(3-{[4-Amino-2-(ethoxymethyl)-1H-imidazo[4,5-c]quinolin-1-yl]amino}propyl)cyclopentanecarboxamide]
174 to 177 | CCOCc1nc2c(N)nc3ccccc3c2n1NCCCNC(=O)NC(C)C [Example 25, 1-(3-{[4-Amino-2-(ethoxymethyl)-1H-imidazo[4,5-c]quinolin-1-yl]amino}propyl)-3-isopropylurea]
185 to 187 | CCOCc1nc2c(N)nc3c(c2n1NCCCNC(=O)NC(C)C)CCCC3 [Example 26, 1-(3-{[4-Amino-2-(ethoxymethyl)-6,7,8,9-tetrahydro-1H-imidazo[4,5-c]quinolin-1-yl]amino}propyl)-3-isopropylurea]
217 to 227 | CCCc1nc2c(N)nc3cc(-c4cccc(NS(C)(=O)=O)c4)ccc3c2n1NC(C)C [Example 27, N-{3-[4-Amino-1-(isopropylamino)-2-propyl-1H-imidazo[4,5-c]quinolin-7-yl]phenyl}methanesulfonamide]
152 to 154 | CCOCc1nc2c(N)nc3c(c2n1NCCCNC(=O)N1CCOCC1)CCCC3 [Example 28, N-(3-{[4-Amino-2-(ethoxymethyl)-6,7,8,9-tetrahydro-1H-imidazo[4,5-c]quinolin-1-yl]amino}propyl)morpholine-4-carboxamide]
274 to 276 | CCCc1nc2c(N)nc3cc(-c4cccc(C(=O)N5CCOCC5)c4)ccc3c2n1NC(C)C [Example 29, N^1-Isopropyl-7-[3-(morpholin-4-ylcarbonyl)phenyl]-2-propyl-1H-imidazo[4,5-c]quinoline-1,4-diamine]
181 to 183 | CCOCc1nc2c(N)nc3cc(OCCCNS(C)(=O)=O)ccc3c2n1NC(C)C [Example 30, N-(3-{[4-Amino-2-(ethoxymethyl)-1-(isopropylamino)-1H-imidazo[4,5-c]quinolin-7-yl]oxy}propyl)methanesulfonamide]
217 to 220 | CCCc1nc2c(N)nc3cc(-c4ccccc4)ccc3c2n1NC(C)C [Example 31, N^1-Isopropyl-7-phenyl-2-propyl-1H-imidazo[4,5-c]quinoline-1,4-diamine]
108 to 110 | CCOCc1nc2c(N)nc3ccccc3c2n1NCCCNC(=O)C(C)C [Example 32, N-(3-{[4-Amino-2-(ethoxymethyl)-1H-imidazo[4,5-c]quinolin-1-yl]amino}propyl)-2-methylpropanamide]
163 to 165 | CCOCc1nc2c(N)nc3c(c2n1NCCCNC(=O)C(C)C)CCCC3 [Example 33, N-(3-{[4-Amino-2-(ethoxymethyl)-6,7,8,9-tetrahydro-1H-imidazo[4,5-c]quinolin-1-yl]amino}propyl)-2-methylpropanamide]
178 to 181 | CCOCc1nc2c(N)nc3ccccc3c2n1NCCCNC(C)=O [Example 34, N-(3-{[4-Amino-2-(ethoxymethyl)-1H-imidazo[4,5-c]quinolin-1-yl]amino}propyl)acetamide]
100 to 103 | CCCc1nc2c(N)nc3cc(CCc4cccnc4)ccc3c2n1NC(C)C [Example 35, N^1-Isopropyl-2-propyl-7-(2-pyridin-3-ylethyl)-1H-imidazo[4,5-c]quinoline-1,4-diamine]
245 to 247 | CCc1nc2c(N)nc3ccccc3c2n1NC(C)C [Example 36, 2-Ethyl-N^1-isopropyl-1H-imidazo[4,5-c]quinoline-1,4-diamine]
198 to 200 | CCOCc1nc2c(N)nc3c(c2n1NCCCNC(C)=O)CCCC3 [Example 37, N-(3-{[4-Amino-2-(ethoxymethyl)-6,7,8,9-tetrahydro-1H-imidazo[4,5-c]quinolin-1-yl]amino}propyl)acetamide]
138 to 141 | CCNC(=O)NCCCNn1c(COCC)nc2c(N)nc3ccccc3c21 [Example 38, 1-(3-{[4-Amino-2-(ethoxymethyl)-1H-imidazo[4,5-c]quinolin-1-yl]amino}propyl)-3-ethylurea]
189 to 191 | CCNC(=O)NCCCNn1c(COCC)nc2c(N)nc3c(c21)CCCC3 [Example 39, 1-(3-{[4-Amino-2-(ethoxymethyl)-6,7,8,9-tetrahydro-1H-imidazo[4,5-c]quinolin-1-yl]amino}propyl)-3-ethylurea]
167 to 169 | CCc1nc2c(N)nc3ccccc3c2n1NCCCNC(C)=O [Example 40, N-{3-[(4-Amino-2-ethyl-1H-imidazo[4,5-c]quinolin-1-yl)amino]propyl}acetamide]
175 to 176 | CCc1nc2c(N)nc3c(c2n1NCCCNC(C)=O)CCCC3 [Example 41, N-{3-[(4-Amino-2-ethyl-6,7,8,9-tetrahydro-1H-imidazo[4,5-c]quinolin-1-yl)amino]propyl}acetamide]
228 to 229 | CC(C)Nn1c(CO)nc2c(N)nc3ccccc3c21 [Example 42, [4-Amino-1-(isopropylamino)-1H-imidazo[4,5-c]quinolin-2-yl]methanol]
